Measurements: patent publication EP4796548A1, “PROTEOLYSIS-TARGETING CHIMERA COMPOUND FOR DEGRADING IRAK4 AND USE THEREOF” (Dovetree Medicines Unus, Inc., priority 2023, dated 2025)

Legend:
IRAK4 [1] = molecular target: T1, IRAK4 (Homo sapiens, UniProt Q9NWZ3); experiment: cell-based; assay type: cell-based; parameters: endogenous in cells; host or cells: THP-1 cells; settings: for Dmax: THP-1; for DC50: WB, THP-1 cells, 24 hours incubation
T1 sequence (Q9NWZ3 1-460): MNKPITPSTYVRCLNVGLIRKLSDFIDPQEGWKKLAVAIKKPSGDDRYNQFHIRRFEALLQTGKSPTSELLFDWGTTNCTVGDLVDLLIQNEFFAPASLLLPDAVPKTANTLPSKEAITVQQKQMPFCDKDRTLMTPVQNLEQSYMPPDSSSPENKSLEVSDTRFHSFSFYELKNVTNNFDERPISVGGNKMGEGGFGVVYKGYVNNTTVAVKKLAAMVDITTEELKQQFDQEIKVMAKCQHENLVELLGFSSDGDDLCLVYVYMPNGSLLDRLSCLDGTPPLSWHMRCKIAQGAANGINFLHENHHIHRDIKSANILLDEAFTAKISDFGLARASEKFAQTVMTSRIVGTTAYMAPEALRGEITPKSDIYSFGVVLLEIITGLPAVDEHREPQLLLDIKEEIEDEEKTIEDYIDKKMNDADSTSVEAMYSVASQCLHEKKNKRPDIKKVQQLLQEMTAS
Procedure: The degradation level of IRAK4 in THP-1 cells was detected by Western Blot technique. 1,000,000 THP-1 cells were seeded in a 12-well plate (Corning 3513) with 1 mL per well. A stock solution of the compound in 1000× gradient dilution was prepared, with a maximum concentration of 300 µM, and serially diluted with DMSO in 1:3, for a total of 9 doses. The compound in 1000× gradient dilution was added to the 12-well plate with 1 µL per well. After incubation under a condition of 37°C, 5% CO2 for 24 hours, the cells were collected into a 2 mL centrifuge tube, and centrifuged at 5,000 rpm for 5 minutes. The supernatant was discarded. 100 µL RIPA lysis solution (Beyotime, P0013C) was added. After mixing well, the cells were lysed on ice for 10 min, and centrifuged at 14,000 rpm at 4°C for 10 min. The supernatant was collected. Protein content was determined using BCA (Solarbio, PC0020-10*50T). 75 µL of the supernatant was taken, and 25 µL NuPAGE LDS Sample Buffer (4X) (Thermo B0007) (with 5% β-mercaptoethanol added before use) was added to each tube to prepare samples, followed by heating in a metal bath at 100°C for 5 min. 20 µL was loaded into a 4-12% Bis-Tris gel (Invitrogen, WG1402BOX) to prepare 1x NuPAGE™ MOPS buffer (Invitrogen, NP0001). The electrophoresis apparatus was set to a constant voltage of 120V for 1.5 hours. 1x NuPAGE™ MOPS SDS electrophoresis buffer (20X) (Invitrogen, NP0001) was prepared. The electrophoresis apparatus was set to a constant current of 300 mA for 100 minutes. The protein was transferred to a PVDF membrane (Millipore, IPVH00010). The PVDF membrane was blocked with a blocking solution (Licor, 927-60001) at room temperature for 1 h, IRAK4 antibody (Abcam ab32511) was diluted 1:1,000, GAPDH (Abcam ab8245) was diluted 1:3,000, and then the antibody was incubated overnight at 4°C. The next day, the membrane was washed three times with 1× TBST (Elabscience E-BC-R335), for 5 min each time. Secondary antibodies IR Dye 800 CW Goat anti-rabbit (Licor #926-32211) and IRDye® 680RD Goat anti-Mouse (Licor #926-68070) were diluted 1:10,000, followed by incubation in the dark at room temperature for 1 h. The membrane was washed three times with TBST, for 5 min each time. Using Odyssey imaging system Li-cor Odyssey Clx, signals were detected and data were analyzed. Data were analyzed using GraphPad (Prism 9.3) software with non-linear regression (non-liner inhibitor(Bell-shaped)) and a 4 parameter, with parameters as follows: • Span 1 =Plateau1-Dip • Span2=Plateau2-Dip Section1 = Span1/(1+10^(∧)((LogEC50_1−X)*nH1)) [formula] Section2 = Span2/(1+10^(∧)((X−LogEC50_2)*nH2)) [formula]
(§1) The equation is as follows: Y=Dip+Section1+Section2.

IRAK4 [2] = molecular target: T1, IRAK4; experiment: detection of proteolysis by Hibit fluorescence (IRAK4 degradation); assay type: cell-based; parameters: host or cells: HEK293T cells (ATCC); settings: for Dmax: HEK-293T; for DC50: Hibit, HEK293T cells transfected with HiBiT-tagged IRAK4 plasmid, 24 hours incubation
Procedure: Using the HiBiT tag technology, the sequence containing the HiBiT tag (Seq. ID. No. 1, 5'-[…]-3', Beijing Tsingke Biotech Co., Ltd.) was ligated to the IRAK4 plasmid (Seq. ID. No. 2, 5'-Eco[…] NOT1-3', Beijing Tsingke Biotech Co., Ltd.). The plasmid was transfected into HEK293T cells (ATCC), and the HiBiT […] was measured to characterize the compound-induced IRAK4 degradation. 300,000 HEK293T cells in 1 mL of DMEM medium (Gbico, 11965-092) were seeded into a 6-well plate (Corning 3516) , followed by being placed overnight in a constant incubator at 37°C, 5% CO2. 3 µL X-tremeGENE™ 9 DNA Transfection Reagent (Roche #06365787001), and 1 µg IRAK4 plasmid were added to 200 µL Opti-MEM (Gibico 31985062), followed by gentle mixing. The 6-well plate that had been incubated overnight was taken out and allowed to stand at room temperature for 15 minutes, followed by dropwise addition to the 6-well plate. After transient transfection for 6 hours, cells were digested with trypsin (Gibco, 25200-056) for one minute, followed by centrifugation at 1000 rpm for 3 minutes. 5000 HEK293T cells in 40 µL DMEM medium were seeded into a 384-well plate (Corning 3765), followed by being placed overnight in a constant incubator at 37°C, 5% CO2. Then, 40 nL of the compound was added to the 384-well plate using an Echo 655 Liquid Handler, with a highest final concentration of 10 µM, and a 1:3 serial dilution to give a total of 10 concentrations, followed by incubation at 37°C, 5% CO2 for 24 hours. The 384-well plate was removed and equilibrated to room temperature. 40 µL Nano-Glo® HiBiT Lytic Detection System (Promega N3030) was added to each well. After incubation at room temperature for 15 minutes, the fluorescence values were recorded using EnVision Xcite Multilabel Reader (PerkinElmer 2105-0020). Data were fitted and analyzed using Prism 9.3 software with non-linear regression (non-liner inhibitor(Bell-shaped)) and a 4 parameter, with parameters as follows: • Span1=Plateau1[…] • Span2=Plateau2-Dip Section1 = Span1/(1+10^(∧)((LogEC50_1−X)*nH1)) [formula] Section2 = Span2/(1+10^(∧)((X−LogEC50_2)*nH2)) [formula]
as §1

DC50 (IRAK4 [1]; read-out: DC50) | SMILES | Dmax (IRAK4 [1]) | DC50 (IRAK4 [1]) | Dmax (IRAK4 [2]) | DC50 (IRAK4 [2])
– | Cn1c(=O)n(C2CCC(=O)NC2=O)c2cccc(N3CCN(C4CCN(C[C@H]5CC[C@H](n6nc(C(F)F)c7cc(-c8ccc9cc(C(N)=O)cnn89)ncc76)CC5)CC4)CC3)c21 (some centres unmarked) [Compound 5] | 60 to 70% | < 10 nM | > 80% | < 0.5 nM
– | C[C@H]1CN(C[C@H]2CC[C@H](n3nc(C(F)F)c4cc(-c5ccc6cc(C(N)=O)cnn56)ncc43)CC2)CCN1C1CCN(c2cccc3c2n(C)c(=O)n3C2CCC(=O)NC2=O)CC1 (some centres unmarked) [Compound 22] | < 60% | > 30 nM | – | –
– | Cn1c(=O)n(C2CCC(=O)NC2=O)c2cccc(N3CCN(C[C@H]4CC[C@H](n5nc(C(F)F)c6cc(-c7ccc8cc(C(N)=O)cnn78)ncc65)CC4)CC3)c21 (some centres unmarked) [Compound 4] | – | – | < 60% | 1 to 5 nM
– | Cn1nc(C2CCC(=O)NC2=O)c2cccc(N3CCC4(CCN(C[C@H]5CC[C@H](n6nc(C(F)F)c7cc(-c8ccc9cc(C(N)=O)cnn89)ncc76)CC5)C4)CC3)c21 (some centres unmarked) [Compound 20] | < 60% | 10 to 30 nM | – | –
– | Cn1c(=O)n(C2CCC(=O)NC2=O)c2cccc(N[C@H]3CC[C@H](N(C)C[C@H]4CC[C@H](n5nc(C(F)F)c6cc(-c7ccc8cc(C(N)=O)cnn78)ncc65)CC4)CC3)c21 (some centres unmarked) [Compound 7] | – | – | 60 to 70% | < 0.5 nM
– | C[C@@H]1CN(C2CCN(c3cccc4c3n(C)c(=O)n4C3CCC(=O)NC3=O)CC2)CCN1C[C@H]1CC[C@H](n2nc(C(F)F)c3cc(-c4ccc5cc(C(N)=O)cnn45)ncc32)CC1 (some centres unmarked) [Compound 12] | 60 to 70% | > 30 nM | – | –
– | Cn1c(=O)n(C2CCC(=O)NC2=O)c2cccc(N3CCC4(CCN(C[C@H]5CC[C@H](n6nc(C(F)F)c7cc(-c8ccc9cc(C(N)=O)cnn89)ncc76)CC5)C4)CC3)c21 (some centres unmarked) [Compound 6] | > 70% | < 10 nM | > 80% | < 0.5 nM
– | Cn1c(=O)n(C2CCC(=O)NC2=O)c2cccc(N3CCC4(CCN(C[C@H]5CC[C@H](n6nc(C(F)F)c7cc(-c8ccc9cc(C(N)=O)cnn89)ncc76)CC5)CC4)C3)c21 (some centres unmarked) [Compound 3] | – | – | 70 to 80% | < 0.5 nM
– | Cn1nc(C2CCC(=O)NC2=O)c2cccc(N3CCC(N4CCN(C[C@H]5CC[C@H](n6nc(C(F)F)c7cc(-c8ccc9cc(C(N)=O)cnn89)ncc76)CC5)CC4)CC3)c21 (some centres unmarked) [Compound 19] | > 70% | < 10 nM | – | –
– | Cn1nc(C2CCC(=O)NC2=O)c2cccc(-c3cnn(C4CCN(C[C@H]5CC[C@H](n6nc(C(F)F)c7cc(-c8ccc9cc(C(N)=O)cnn89)ncc76)CC5)CC4)c3)c21 (some centres unmarked) [Compound 10] | > 70% | < 10 nM | – | –
– | Cn1c(=O)n(C2CCC(=O)NC2=O)c2cccc(-c3cnn(C4CCN(C[C@H]5CC[C@H](n6nc(C(F)F)c7cc(-c8ccc9cc(C(N)=O)cnn89)ncc76)CC5)CC4)c3)c21 (some centres unmarked) [Compound 11] | < 60% | > 30 nM | – | –
– | C[C@H]1CN(C2CCN(c3cccc4c3n(C)c(=O)n4C3CCC(=O)NC3=O)CC2)CCN1C[C@H]1CC[C@H](n2nc(C(F)F)c3cc(-c4ccc5cc(C(N)=O)cnn45)ncc32)CC1 (some centres unmarked) [Compound 13] | > 70% | > 30 nM | – | –
– | Cn1c(=O)n(C2CCC(=O)NC2=O)c2cccc(N3CCC(N4CCN(C[C@H]5CC[C@H](n6nc(C(F)F)c7cc(-c8ccc9cc(C(N)=O)cnn89)ncc76)CC5)CC4)CC3)c21 (some centres unmarked) [Compound 2] | > 70% | < 10 nM | > 80% | < 0.5 nM
> 30 nM | C[C@H]1CN(c2cccc3c2n(C)c(=O)n3C2CCC(=O)NC2=O)CCN1C[C@H]1CC[C@H](n2nc(C(F)F)c3cc(-c4ccc5cc(C(N)=O)cnn45)ncc32)CC1 (some centres unmarked) [Compound 9] | – | – | – | –
– | Cn1c(=O)n(C2CCC(=O)NC2=O)c2cccc(N3CCC4(CCN(C[C@H]5CC[C@H](n6nc(C(F)F)c7cc(-c8ccc9cc(C(N)=O)cnn89)ncc76)CC5)CC4)CC3)c21 (some centres unmarked) [Compound 1] | > 70% | < 10 nM | > 80% | < 0.5 nM
– | C[C@@H]1CC2(CCN(c3cccc4c3n(C)c(=O)n4C3CCC(=O)NC3=O)CC2)CN1C[C@H]1CC[C@H](n2nc(C(F)F)c3cc(-c4ccc5cc(C(N)=O)cnn45)ncc32)CC1 (some centres unmarked) [Compound 17] | > 70% | > 30 nM | – | –
– | Cn1c(=O)n(C2CCC(=O)NC2=O)c2cccc(C#CCOC3CCN(C[C@H]4CC[C@H](n5nc(C(F)F)c6cc(-c7ccc8cc(C(N)=O)cnn78)ncc65)CC4)CC3)c21 (some centres unmarked) [Compound 8] | – | – | 70 to 80% | < 0.5 nM
